Measured values: patent publication US10774122B2, “ERG targeted therapy” (The Regents of the University of Michigan, priority 2017, dated 2020)
Where a SMILES comes first, the peptide text is derived from it. [ ]: non-standard residue; d: D form.

Columns and labels:
[1] = test system: ERG and DNA-PKcs enrichment at ERG-regulated genomic loci; assay type: cell-based
Method: VCaP cells were grown in complete medium and treated with peptidomimetics 12 hours prior to harvesting cells. ChIP assays were carried out as previously described (Brenner et al., 2011; supra; Yu et al., 2010; supra) using antibodies against ERG (Santa Cruz, # sc-354), DNA-PKcs (BD Biosciences, #610805), rabbit IgG (Santa Cruz, # sc-2027) or mouse IgG (Santa Cruz, # sc-2025). Briefly, chromatin collected from formaldehyde crosslinked and lysed cells was sonicated to an average length of 600 bp. Supernatants containing chromatin fragments were pre-cleared using protein A/G beads (Upstate) and incubated with 3-5 μg of ERG antibody or IgG overnight prior to the addition of […] of protein A/G beads for 1 hour. Antibody-bead precipitates were then washed six times and antibody/protein/DNA complexes were eluted with 150 μl IP elution buffer (50 mM […], 1% SDS). To reverse the crosslinks, the complexes were incubated in elution buffer containing 10 μg RNase A and 0.3 M NaCl at 67° C. for 4-5 hours. DNA/protein complexes were then precipitated with ethanol, air-dried, and dissolved in 100 μl of TE. Protein was then digested by incubation with proteinase K at 45° C. for 1 hour and DNA was purified using a QIAGEN PCR column according to the manufacturer's protocol. QPCR was performed using appropriate primers as previously described (Brenner et al., 2011; supra).

ERG:DNA-PKcs interaction = target: T1, ERG:DNA-PKcs interaction (Homo sapiens, UniProt P11308); conditions: mouse, in vivo, 25 mg/kg
T1 sequence (P11308 33-479 limits assumed): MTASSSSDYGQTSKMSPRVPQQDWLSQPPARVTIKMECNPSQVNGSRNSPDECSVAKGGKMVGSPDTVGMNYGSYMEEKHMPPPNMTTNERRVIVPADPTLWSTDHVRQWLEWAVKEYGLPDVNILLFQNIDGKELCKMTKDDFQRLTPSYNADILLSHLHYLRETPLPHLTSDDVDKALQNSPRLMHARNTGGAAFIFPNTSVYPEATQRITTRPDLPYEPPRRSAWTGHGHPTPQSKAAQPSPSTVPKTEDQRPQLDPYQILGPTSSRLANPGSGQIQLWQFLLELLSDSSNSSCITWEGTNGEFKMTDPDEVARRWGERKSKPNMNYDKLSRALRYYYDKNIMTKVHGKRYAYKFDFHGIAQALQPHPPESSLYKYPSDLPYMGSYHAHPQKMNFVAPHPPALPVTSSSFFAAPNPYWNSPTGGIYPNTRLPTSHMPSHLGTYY
Method: (§1) Cell pellets or tumors treated with or without the peptidomimetics were lysed in cell lysis buffer (20 mM MOPS, pH 7.0, 2 mM EGTA, 5 mM EDTA, 30 mM sodium fluoride, 60 mM β-glycerophosphate, 20 mM sodium pyrophosphate, 1 mM sodium orthovanadate, 1% Triton X-100, 1 mM DTT, protease inhibitor cocktail (Roche)). Cell lysates (0.5-1.0 mg) were pre-cleaned with protein A/G agarose beads (Santa Cruz) by incubation for 1 hour with shaking at 4° C. followed by centrifugation at 2000 rpm for 3 minute. Lysates were then incubated with 2 μg ERG antibody (Santa Cruz, C-17) at 4° C. for 4 hours with shaking prior to addition of 20 μl protein A/G agarose beads and incubated at 4° C. overnight. […] Samples were then analyzed by SDS-PAGE and Western blot analysis as described above.
VCaP xenografted mice were injected with a single dose of 25 mg/kg biotinylated RI-EIP1 and serum and tumors were collected at varying time intervals as indicated.

ERG protein = ERG protein (Homo sapiens, UniProt P11308); conditions: mouse, in vivo
Method: VCaP cells were seeded in 6-well plates at 0.5×10^6 cells/ml and after allowing cells to attach, cells were harvested and homogenized in NP40 lysis buffer (Sigma) containing a complete protease inhibitor cocktail (Roche). Ten micrograms of each protein extract was boiled in SDS sample buffer, size fractionated by SDS-PAGE, and transferred onto a PVDF membrane (GE Healthcare). […] Following three washes in TBS-T, the blots were incubated with horseradish peroxidase conjugated secondary antibody and the signals visualized by enhanced chemiluminescence system according to manufacturer's instructions (GE Healthcare).
as §1

[2] = test system: VCaP (ERG fusion-positive) xenografts; assay: VCaP xenograft mouse model, tumor growth
Method: Athymic Nude-Foxnlnu male mice were procured from Harlan Laboratories, Inc (Indianapolis, Ind.). All procedures involving mice were approved by the University Committee on Use and Care of Animals (UCUCA) at the University of Michigan and conformed to their relevant regulatory standards. […] Statistical significance for Kaplan-Meier analysis was determined by the log-rank (Mantel-Cox) test.
Athymic Nude-Foxnlnu male mice were procured from Harlan Laboratories, Inc. (Indianapolis, Ind.). VCaP (2×10^6 cells) or PC3 (5×10^5 cells) were resuspended in 100 μl of saline with 50% Matrigel (BD Biosciences, Becton Drive, NJ) and implanted subcutaneously into the flank regions on both sides of the mice. Mice were anesthetized using a cocktail of xylazine (80-120 mg/kg, IP) and ketamine (10 mg/kg, IP) for chemical restraint before tumor cells implantation. For short term assays, all tumors were staged for three weeks before starting peptidomimetic treatment. After week 3 (VCaP cells) or 12 days (PC3 cells), mice (10 per treatment group) were treated with peptidomimetics (25 mg/kg or 10 mg/kg as indicated, IP) daily five times a week.
Tumor growth was recorded every three days using digital calipers and tumor volumes were calculated using the formula (π/6) (L×W2), where L=length of tumor and W=width. Body weight was monitored weekly over the course of the study. At the end of the xenograft studies, mice were anaesthetized and blood was collected by cardiac puncture and tumors were preserved for further biochemical and immunofluorescence analysis. […] Survival analysis was carried out using the GraphPad Prism 4.0 software (GraphPad Software, San Diego, Calif.). Statistical significance for Kaplan-Meier analysis was determined by the log-rank (Mantel-Cox) test. All procedures involving mice were approved by the University Committee on Use and Care of Animals (UCUCA) at the University of Michigan and conform to their relevant regulatory standards.

ERG = target: T2, ERG (Homo sapiens, UniProt P11308); assay: ERG:peptide binding by biolayer interferometry (OctetRED)
T2 sequence (P11308 1-479): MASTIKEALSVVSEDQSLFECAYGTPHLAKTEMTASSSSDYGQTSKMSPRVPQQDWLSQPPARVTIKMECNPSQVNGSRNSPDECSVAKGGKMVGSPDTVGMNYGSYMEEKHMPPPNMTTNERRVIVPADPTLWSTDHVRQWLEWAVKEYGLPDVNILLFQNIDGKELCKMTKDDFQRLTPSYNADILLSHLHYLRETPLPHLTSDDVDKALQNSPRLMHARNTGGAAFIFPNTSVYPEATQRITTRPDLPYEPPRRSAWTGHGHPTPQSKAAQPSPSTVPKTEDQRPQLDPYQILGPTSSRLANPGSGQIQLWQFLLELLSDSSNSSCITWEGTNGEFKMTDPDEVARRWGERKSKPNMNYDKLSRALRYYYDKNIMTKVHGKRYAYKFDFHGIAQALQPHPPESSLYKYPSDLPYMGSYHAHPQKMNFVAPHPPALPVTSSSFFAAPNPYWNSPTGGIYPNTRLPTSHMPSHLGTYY
Method: The interaction coefficients between ERG and synthetic peptides or peptidomimetics were determined by biolayer interferometry technology using the Octet Red system (ForteBio). Purified ERG and GUS proteins were biotinylated by EZLink NHS-PEG4 Biotinylation Kit (Thermo Scientific) following the manufacturer's protocol and any unincorporated biotin was removed from the reactions with Zeba 2 ml desalt columns (Thermo). Biotinylated proteins (500 μg/ml) were then incubated with super streptavidin biosensors in binding buffer (20 mM HEPES pH 7.4, 150 mM NaCl), blocked with 10 μg/ml biocytin and washed three times in binding buffer. Peptides were serially diluted in binding buffer, mixed with the protein-coupled biosensors and peptidomimetic:protein association/dissociation was monitored for 10 min at 25° C. Nonspecific binding from the signal obtained from peptidomimetic:GUS interactions was subtracted from that of peptidomimetic:ERG interactions and baseline signal drift was controlled by monitoring immobilized ERG without peptide. Octet Red analysis software was used to analyze the data.

SMILES: CC(C)C[C@@H](NC(=O)[C@H]1CCCN1C(=O)[C@H]1CCCN1C(=O)[C@@H](Cc1ccc(O)cc1)NC(=O)[C@@H](CC(C)C)NC(=O)[C@@H](Cc1ccccc1)NC(=O)[C@H](NC(=O)CNC(=O)CNC(=O)[C@@H](CCCNC(=N)N)NC(=O)[C@@H](CCCCN)NC(=O)[C@@H](CCCCN)NC(=O)[C@@H](CCCNC(=N)N)NC(=O)[C@@H](CCCNC(=N)N)NC(=O)[C@@H](CCC(N)=O)NC(=O)[C@@H](CCCNC(=N)N)NC(=O)[C@@H](CCCNC(=N)N)NC(=O)[C@@H](CCCNC(=N)N)NC(=O)CN)[C@H](C)O)C(=O)O [RI-EIP1] (H-G[dR][dR][dR][dQ][dR][dR][dK][dK][dR]GG[dT][dF][dL][dY][dP][dP][dL]-OH)
- ERG and DNA-PKcs enrichment at ERG-regulated genomic loci [1]: inhibits
- ERG:DNA-PKcs interaction in VCaP xenograft tumors (ERG:DNA-PKcs interaction): blocked
- ERG protein in VCaP xenograft tumors (ERG protein): substantial degradation
- recurrences after additional 30 days without therapy ([2]; 25 mg/kg group): no recurrences were observed
- tumors completely regressed with no palpable tumor ([2]; 25 mg/kg, day 18): 10%
- tumors with no signs of recurrence ([2]; 25 mg/kg, extended treatment, day 30): 35%
- tumor growth, additional VCaP xenograft studies ([2]; 1, 5 and 25 mg/kg, effect at 25 mg/kg relative to control): significant suppression
- VCaP tumor growth ([2]; 10 or 25 mg/kg per day, day 18, relative to mutant peptide, p<0.01): dose-dependent reduction
- Kd (ERG): 940 nM
